The structures appear in SMILES notation. Read-outs that look alike come from different tables or passages of the source.

This note sets out measurements from patent US20240269139A1, “COMPOUNDS FOR TARGETED PROTEIN DEGRADATION OF KINASES” (DANA-FARBER CANCER INSTITUTE, INC., priority 2020, published 2024).

Experiment [1] deals with T1, protein kinases (human kinome) (Homo sapiens, UniProt Q9NYY8).
T1 sequence (Q9NYY8 1-710): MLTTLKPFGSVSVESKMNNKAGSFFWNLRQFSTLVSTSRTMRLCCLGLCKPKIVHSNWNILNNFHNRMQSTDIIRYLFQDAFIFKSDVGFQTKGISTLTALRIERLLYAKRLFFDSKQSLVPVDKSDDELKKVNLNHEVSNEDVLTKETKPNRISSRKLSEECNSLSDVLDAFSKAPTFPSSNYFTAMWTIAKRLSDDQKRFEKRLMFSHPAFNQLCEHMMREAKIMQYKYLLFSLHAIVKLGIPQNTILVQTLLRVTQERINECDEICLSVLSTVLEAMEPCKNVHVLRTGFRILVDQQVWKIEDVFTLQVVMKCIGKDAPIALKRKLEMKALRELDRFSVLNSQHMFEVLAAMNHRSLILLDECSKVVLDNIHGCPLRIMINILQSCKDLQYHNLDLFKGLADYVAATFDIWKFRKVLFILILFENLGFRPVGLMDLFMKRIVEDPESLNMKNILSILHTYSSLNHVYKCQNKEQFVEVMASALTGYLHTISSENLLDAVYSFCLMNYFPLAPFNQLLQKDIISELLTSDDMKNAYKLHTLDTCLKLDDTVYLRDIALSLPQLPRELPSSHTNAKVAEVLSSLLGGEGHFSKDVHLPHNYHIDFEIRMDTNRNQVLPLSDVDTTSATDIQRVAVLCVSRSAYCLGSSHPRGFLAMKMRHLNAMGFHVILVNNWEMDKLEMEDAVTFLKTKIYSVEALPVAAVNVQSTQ
It is filed as cell-based. Particulars: direction down.

Experiment [2] relates to protein kinases (human kinome). It is filed as cell-based. The following applies: for logFC PDK3: PDK3 (Q15120-2); for logFC ABL1: ABL1 (P00519-2); for logFC of SRC: Accession P12931-2; for logFC LCK: accession P06239-3.
In experiment [3] the target is T2, extended human kinome (kinase-like proteins) (Homo sapiens, UniProt P54886).
T2 sequence (P54886 1-795): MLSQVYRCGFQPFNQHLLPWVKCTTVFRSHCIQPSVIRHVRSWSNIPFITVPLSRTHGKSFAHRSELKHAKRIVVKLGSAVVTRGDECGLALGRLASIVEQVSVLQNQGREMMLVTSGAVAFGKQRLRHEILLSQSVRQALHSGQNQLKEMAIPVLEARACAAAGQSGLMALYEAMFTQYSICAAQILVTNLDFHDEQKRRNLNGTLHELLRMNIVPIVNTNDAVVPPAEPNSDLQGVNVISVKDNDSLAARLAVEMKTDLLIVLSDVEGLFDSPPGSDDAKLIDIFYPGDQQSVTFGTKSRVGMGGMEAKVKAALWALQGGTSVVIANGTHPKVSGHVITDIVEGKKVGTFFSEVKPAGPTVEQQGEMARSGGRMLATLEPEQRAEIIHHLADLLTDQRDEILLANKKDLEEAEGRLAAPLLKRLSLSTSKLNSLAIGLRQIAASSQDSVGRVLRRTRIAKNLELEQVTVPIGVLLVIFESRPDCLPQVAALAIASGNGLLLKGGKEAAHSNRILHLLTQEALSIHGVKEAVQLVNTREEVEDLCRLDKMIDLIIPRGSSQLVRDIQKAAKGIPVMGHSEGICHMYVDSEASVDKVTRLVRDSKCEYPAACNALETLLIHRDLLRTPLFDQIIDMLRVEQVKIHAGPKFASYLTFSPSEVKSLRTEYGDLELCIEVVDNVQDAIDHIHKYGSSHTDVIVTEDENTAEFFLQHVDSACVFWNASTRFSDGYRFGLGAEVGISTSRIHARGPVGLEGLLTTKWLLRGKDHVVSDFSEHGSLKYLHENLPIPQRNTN
Briefly: Whole cell quantitative proteomics: extended kinome hits. The following applies: Accession P54886.
Description: Whole cell multiplexed quantitative proteomics was employed to measure changes in abundance of the proteome in response to treatment with each of the kinase degrader molecules relative to DMSO (Table 1, Appendix I).
Cells were treated with DMSO (biological triplicate) or degrader at indicated dose and time and cells were harvested by centrifugation. […] Precipitated protein was resuspended in 4 M Urea, 50 mM HEPES pH 7.4, followed by dilution to 1 M urea with the addition of 200 mM EPPS, pH 8. Proteins were first digested with LysC (1:50: enzyme:protein) for 12 hours at room temperature. The LysC digestion was diluted to 0.5 M Urea with 200 mM EPPS pH 8 followed by digestion with trypsin (1:50; enzyme:protein) for 6 hours at 37° C. Tandem mass tag (TMT) reagents (Thermo Fisher Scientific) were dissolved in anhydrous acetonitrile (ACN) according to manufacturer's instructions. […] The 10, 11, or 16-plex labeling reactions were performed for 1.5 hours at room temperature and the reaction quenched by the addition of hydroxylamine to a final concentration of 0.3% for 15 minutes at room temperature. The sample channels were combined at a 1:1 ratio, desalted using C18 solid phase extraction cartridges (Waters®) and analyzed by LC-MS for channel ratio comparison. Samples were then combined using the adjusted volumes determined in the channel ratio analysis and dried down in a speed vacuum. The combined sample was then resuspended in 1% formic acid, and acidified (pH 2-3) before being subjected to desalting with C18 SPE (Sep-Pak®, Waters®). Samples were then offline fractionated into 96 fractions by high pH reverse-phase HPLC (Agilent® LC1260) through an aeris peptide xb-c18 column (Phenomenex®) with mobile phase A containing 5% acetonitrile and 10 mM NH4HCO3 in LC-MS grade H2O, and mobile phase B containing 90% acetonitrile and 10 mM NH4HCO3 in LC-MS grade H2O (both pH 8.0). The 96 resulting fractions were then pooled in a non-continuous manner into 24 fractions and desalted using C18 solid phase extraction plates (SOLA®, Thermo Fisher Scientific) followed by subsequent mass spectrometry analysis.
Data were collected using an Orbitrap Fusion™ Lumos™ mass spectrometer (Thermo Fisher Scientific, San Jose, CA, USA) coupled with a Proxeon EASY-nLC™ 1200 LC pump (Thermo Fisher Scientific) or an Orbitrap Eclipse™ Tribrid™ mass spectrometer (Thermo Fisher Scientific, San Jose, CA, USA) coupled with an UltiMate™ 3000 RSLCnano System. Peptides were separated on an EasySpray™ ES803a/ES803a.rev2 75 μm inner diameter microcapillary column (ThermoFisher Scientific).
Data dependent MS2 spectra were acquired in the ion trap with a normalized collision energy (NCE) set at 35%, AGC target set to 1.8×10^4 and a maximum injection time of 120 ms. MS3 scans were acquired in the Orbitrap with HCD collision energy set to 55%. AGC target set to 2×10^5, maximum injection time of 150 ms, resolution at 50,000 and with a maximum synchronous precursor selection (SPS) precursors set to 10.
Proteome Discoverer™ 2.1, 2.2 or 2.4 (Thermo Fisher Scientific) was used for .RAW file processing and controlling peptide and protein level false discovery rates, assembling proteins from peptides, and protein quantification from peptides.

Setting [4] is: experiment wp056, direction of change down.
Where [5] appears, read: experiment wp103, direction of change down.
[6] abbreviates: experiment wp107, direction of change down.

As to `CN(C)C(=O)c1cc2cnc(Nc3ccc(N4CCN(CCCCNC(=O)COc5cccc6c5C(=O)N(C5CCC(=O)NC5=O)C6=O)CC4)cn3)nc2n1C1CCCC1` (stereo not drawn) [BSJ.04.132], in experiment [1] (Experiment wp084), the “logFC FASTKD2 (Q9NYY8)” value is listed as −0.5107. Besides, the logFC was −0.7484 in experiment [2] (ACAD10 (Q6JQN1-5), experiment wp084) and −0.383 in experiment [2] (GK P32189-3, experiment wp084). In experiment [2] (experiment wp084), the “logFC PDK3” value is reported as −0.7397. Also, in experiment [2] (experiment wp084), the “logFC PDK3 (Q15120-2)” value is listed as −0.7397. Further, the “logFC ALDH18A1” value in experiment [3] (experiment wp084) is −0.6568.

As to `CC(C)(C)c1nc(-c2cccc(NS(=O)(=O)c3c(F)cccc3F)c2F)c(-c2ccnc(NCCOCCNC(=O)CCOCCOCCNc3cccc4c3CN(C3CCC(=O)NC3=O)C4=O)n2)s1` (stereo not drawn) [DD.03.107], the “logFC FASTKD2 (Q9NYY8)” value in experiment [1] (Experiment wp147, 1 uM) is −0.7236; in experiment [1] (Experiment wp147, 2 uM), −0.6784; in experiment [1] (Experiment wp147, 4 uM), −1.273. Also, the logFC is −0.5536 in experiment [2] (ACAD10 (Q6JQN1-5), experiment wp147, 1 uM); −0.5234 in experiment [2] (ACAD10 (Q6JQN1-5), experiment wp147, 2 uM); −1.061 in experiment [2] (ACAD10 (Q6JQN1-5), experiment wp147, 4 uM); −0.4979 in experiment [2] (GK P32189-3, experiment wp147, 1 uM); −0.4324 in experiment [2] (GK P32189-3, experiment wp147, 2 uM); −0.7592 in experiment [2] (GK P32189-3, experiment wp147, 4 uM). The “logFC PDK3” value is given as −0.5119 in experiment [2] (experiment wp147, 1 uM); −0.5406 in experiment [2] (experiment wp147, 2 uM); −1.004 in experiment [2] (experiment wp147, 4 uM). Further, the “logFC PDK3 (Q15120-2)” value in experiment [2] (experiment wp147, 1 uM) was −0.5119; in experiment [2] (experiment wp147, 2 uM) it was −0.5406; in experiment [2] (experiment wp147, 4 uM), −1.004. In addition, the “logFC ALDH18A1” value in experiment [3] (experiment wp147, 1 uM) is on record as −0.6536; in experiment [3] (experiment wp147, 2 uM) it was −0.7374; in experiment [3] (experiment wp147, 4 uM), −1.326.

Turning to `O=C(COc1cccc2c1C(=O)N(C1CCC(=O)NC1=O)C2=O)NCCCCCCCC(=O)NC1(c2ccc(-c3nc4ccn5c(=O)[nH]nc5c4cc3-c3ccccc3)cc2)CCC1` (stereo not drawn) [INY.01.140.1], the “logFC FASTKD2 (Q9NYY8)” value in experiment [1] (Experiment wp081) is on record as −0.4053. For the same compound, in experiment [2] (experiment wp081), the “logFC PDK3” value is −0.3755 and the “logFC PDK3 (Q15120-2)” value is recorded as −0.3755. Also, the “logFC ALDH18A1” value in experiment [3] (experiment wp081) is reported as −0.4491.

As for `Cc1ccc(C(=O)Nc2ccc(CN3CCN(CCCOCCOCCOCCNC(=O)COc4cccc5c4C(=O)N(C4CCC(=O)NC4=O)C5=O)CC3)c(C(F)(F)F)c2)cc1C#Cc1cnc2cccnn12` (stereo not drawn) [SB1.G.187], in experiment [1] (Experiment wp056), the “logFC FASTKD2 (Q9NYY8)” value was −0.3881. Moreover, the “logFC ABL1” value is listed as −0.5173 in experiment [2] (experiment wp056), −0.754 in experiment [2] (experiment wp103) and −0.5339 in experiment [2] (experiment wp107). The “logFC FYN” value in experiment [2] (Accession P06241-2, experiment wp107) is −0.5334; in experiment [2] (FYN P06241-2, experiment wp107), −0.5334. Moreover, the “logFC of SRC” value is −0.604 in experiment [2] (experiment wp056), −0.8282 in experiment [2] (experiment wp103), −0.5683 in experiment [2] (experiment wp105) and −1.206 in experiment [2] (experiment wp107). Besides, the “logFC MAP3K20 (Q9NYL2-2)” value in experiment [2] (Experiment wp103) is listed as −0.6203; in experiment [2] (Experiment wp107), −0.4387; in experiment [2] (Experiment wp114), −0.7846; in experiment [2] (experiment wp103) it was −0.6203; in experiment [2] (experiment wp107), −0.4387; in experiment [2] (experiment wp114), −0.7846. In addition, the “logFC of LYN (P07948-2)” value in experiment [2] (Experiment wp114) was −0.4408; in experiment [2] (experiment wp105), −1.087. The logFC is −1.394 in experiment [2] (FER (P16591-3), experiment wp172, direction down); −0.4719 in experiment [2] (GK P32189-3, experiment wp056); −1.087 in experiment [2] (LYN (P07948-2), experiment wp105); −0.4408 in experiment [2] (LYN (P07948-2), experiment wp114). The “logFC of FER” value in experiment [2] (FER P16591-3, experiment wp172) is reported as −1.394. The “logFC LCK” value is on record as −1.003 in experiment [2] (setting [4]), −1.237 in experiment [2] (setting [5]) and −1.237 in experiment [2] (setting [6]). The “logFC MAPK14” value in experiment [2] (MAPK14, accession Q16539-2, experiment wp056, direction of change down) is on record as −0.8019; in experiment [2] (MAPK14, accession Q16539-2, experiment wp105, direction of change down) it was −0.9084; in experiment [2] (MAPK14 Q16539-2, experiment wp056), −0.8019; in experiment [2] (MAPK14 Q16539-2, experiment wp105), −0.9084. Further, the “logFC PDK3” value in experiment [2] (experiment wp056) is on record as −0.4827. For the same compound, the “logFC ABL1 (P00519-2)” value in experiment [2] (experiment wp056) is recorded as −0.5173; in experiment [2] (experiment wp103), −0.754; in experiment [2] (experiment wp107), −0.5339. For the same compound, in experiment [2] (experiment wp056), the “logFC PDK3 (Q15120-2)” value was −0.4827. In addition, the “logFC LCK (P06239-3)” value is reported as −1.003 in experiment [2] (setting [4]), −1.237 in experiment [2] (setting [5]) and −1.237 in experiment [2] (setting [6]). In experiment [3] (experiment wp056), the “logFC ALDH18A1” value is −0.4458.

`C=CCn1c(=O)c2cnc(Nc3ccc(N4CCN(CCCNc5cccc6c5C(=O)N(C5CCC(=O)NC5=O)C6=O)CC4)cc3)nc2n1-c1cccc(C(C)(C)O)n1` (stereo not drawn) [ZNL.02.096]: the “logFC FASTKD2 (Q9NYY8)” value in experiment [1] (Experiment wp118) is given as −0.4605. In experiment [2] (GK P32189-3, experiment wp056), the logFC is listed as −0.3867. In addition, in experiment [2] (experiment wp056), the “logFC PDK3” value is reported as −0.3528 and the “logFC PDK3 (Q15120-2)” value is −0.3528. In addition, the “logFC ALDH18A1” value in experiment [3] (experiment wp118) is −0.4405.
